Series [1] deals with T1, Ship2-Sam (Homo sapiens, UniProt O15357).
T1 construct: The Sam (Sterile alpha motif) domain of the lipid phosphatase Ship2 (Ship2-Sam); made in house; host or cells: E. coli
T1 sequence (O15357 1196-1258 limits assumed): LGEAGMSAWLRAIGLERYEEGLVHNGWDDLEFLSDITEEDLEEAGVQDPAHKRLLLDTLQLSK
The series can be described thus: NMR chemical shift perturbation studies with Ship2-Sam. The conditions noted are these: 1D 1H: Ship2-Sam 27 µM, peptide 273 µM; 1H-15N HSQC: Ship2-Sam 20 µM, peptide 200 µM; PBS, 298 K. The series is classed as binding. The protocol:
The interaction between diverse PSscan peptides and Ship2-Sam was assessed by NMR chemical shift perturbation (CSP) studies using both 1D [^1H] and 2D [^1H-^15N] HSQC experiments (Figure 4 and Figures S7–S10).
[^1H-^15N] HSQC spectra for chemical shift perturbation studies were acquired with ^15N labeled Ship2-Sam (20 μM concentration) in the absence and presence of PSscan255, PSscan258, and PSscan266 peptides (200 μM concentrations). For these experiments, concentrated peptide stocks in PBS were diluted in protein samples. The pH was checked upon each peptide’s addition and eventually carefully adjusted with NaOH or HCl solutions to avoid pH variations in the NMR samples. Chemical shift perturbation studies with 1D [^1H] NMR experiments were similarly recorded for Ship2-Sam alone (27 μM concentration) and in the presence of PSscan peptides (273 μM concentration). Spectra under identical experimental conditions were recorded for Ship2-Sam alone and following the addition of the control peptides.

Series [2] addresses T1, Ship2-Sam. The series can be described thus: BLI (BioLayer Interferometry) interaction assay. The conditions noted are these: biotinylated-pegylated PSscan255 immobilized on streptavidin biosensor; Ship2-Sam 20-500 µM; 1:1 Langmuir model, global analysis; read-out: KD for binding to Ship2-Sam. The method, then: The peptide was purchased in the biotinylated–pegylated form (Table S4) and immobilized on a streptavidin-coated biosensor. Kinetic experiments, carried out at diverse Ship2-Sam concentrations in the range of 20–500 µM (Figure S19), provided dose–response signals, allowing the estimation of a KD value equal to (70 ± 40) µM.
For BLI interaction assays, the Sartorius Octet® N1 System and streptavidin (SA)-coated biosensor tips (Sartorius Italy S.r.l., Grassina-Bagno a Ripoli (FI), Italy) were employed. SA biosensor tips were first hydrated in 1X PBS buffer; then, to achieve ligand immobilization, the tips were dipped, for 300 sec with 1000 rpm agitation, into 4 µL of biotinylated–pegylated PSscan255 solution (50 µg/mL). Following peptide loading, each tip was placed in contact, for 300 s with a 1000 rpm agitation speed, with 4 µL of Ship2-Sam protein at several concentrations (20, 50, 100, 300, and 500 µM). All mathematical manipulations were handled by the Octet Analysis Studio 12.2 software from Sartorius. A 1:1 Langmuir binding model was used for data fitting, and the KDs were obtained through the global analysis mode.

Series [3] can be described thus: Serum stability in FBS (RP-HPLC). The conditions noted are these: 25% fetal bovine serum, 25% FBS, 37 °C, peptide 80 µM, RP-HPLC UV peak area, average of two assays. In kind it is in vitro ADME. The method, then:
The PSscan255 peptide was mixed with 25% fetal bovine serum (FBS, from Merck group, Milan, Italy), previously incubated at 37 °C for 15 min, to obtain a peptide concentration equal to 80 µM in the end. These mixtures were kept at 37 °C and, at several time intervals (0, 1, 2, 3, 4, 5, 17, and 19 h), aliquots of the incubating solutions (50 µL) were quenched by using 15% trifluoroacetic acid (TFA) (50 µL) and then incubated at 2 °C for 15 min. Next, serum proteins were discarded by centrifugation (15 min at 3000 rpm), and samples were subjected to reverse-phase high-performance liquid chromatography (RP-HPLC). RP-HPLC runs were conducted with an HPLC LC-4000 series (Jasco) equipped with a UV detector by using a C18-Kinetek column (Phenomenex, Milan, Italy). Gradient elution was conducted at 25 °C; the gradient started with buffer A, consisting of water with 0.1% TFA. Then buffer B, consisting of acetonitrile with 0.1% TFA, was added from 5 to 70% in 20 min. The peak areas were integrated at diverse time lapses. Two assays were performed, and data points represent average values over the two experiments.

Series [4] in a line: Peptide self-aggregation by 1D 1H NMR at diverse concentrations. In kind it is physicochemical. Particulars: 1D 1H NMR in PBS/D2O (90/10 v/v), peptide 50-300 µM, constant pH. The method, then:
In addition, to better understand results from NMR interaction assays, we evaluated whether peptide self-aggregation phenomena could occur in the peptide concentration range employed. Thus, NMR spectra were recorded for each PSscan peptide at diverse concentrations in the range of 50–300 µM (Figure 5, Figures S13 and S14). As all three peptides are rich in aromatic and positively charged residues, self-aggregation can occur not only through π–π stacking interactions but also through cation–π contacts between diverse peptide units. To better identify the signals of aromatic protons within 1D [^1H] NMR spectra in PBS, hydrogen/deuterium exchange experiments were conducted (Figure 5 and Figure S14). Indeed, an excess of D2O in solution induces the disappearance of HN and other exchangeable exposed protons, while aromatic and side-chain protons remain clearly visible (Figure 5 and Figure S14). When recording NMR spectra of peptides at different concentrations, particular care was also taken to keep the pH at a constant value to avoid undesired chemical shift changes.

The test system of series [5] is PC-3 cells. The conditions noted are these: 50 µM, 4 h, fluorescence (deconvolution) microscopy.
Experimental: The FITC-TAT-PSscan255 peptide (50 μM) was added for 4 h to PC-3 cells (5 × 10^4/mL) that were positioned on coverslips inside a Petri dish. Following incubation, cells were first washed three times with PBS and then fixed in 4% paraformaldehyde in PBS for 15 min. Next, cell permeabilization was achieved via treatment with 0.3% Triton-X 100 in PBS for 30 min. After blocking for 15 min with 2% bovine serum albumin, the coverslips were marked with phalloidin-iFluor 594 (Abcam, Milan, Italy), which was diluted 1:1000 for 1 h. After three extra rinses with PBS, the nuclei were stained with Hoechst 33342 (Thermo Fisher Scientific, Milan, Italy), diluted 1:2000, and incubated for 15 min in the dark. Lastly, the coverslips were mounted onto microscope slides with Mowiol (Sigma from Merck Group, Milan, Italy) and permitted to cure for at least 48 h before undergoing microscopy imaging. Images were taken with a Nikon Eclipse Ti2-E inverted research microscope (Nikon Instruments, Melville, NY, USA) using standard phase contrast, epifluorescence microscopy, and deconvolution. Image acquisition was accomplished with an Andor Zyla 4.2+ sCMOS high-sensitivity monochrome camera and managed by Nikon NIS-Elements Advanced Research (AR) image acquisition and analysis software.
Series [6] addresses T2, PSscan255 (synthetic construct, also: biotinylated and pegylated, positions not given here).
T2 chain: KREWYKFLANKRIAY
The experiment in a line: BLI.

Where “and” joins values, the source holds several entries; their conditions need not be identical. Equal values may be shown once. Residues, ends and D or L forms follow the SMILES beside them. No end group written: not given here. *: point of attachment. FITC = O=C1OC2(c3ccc(O)cc3Oc3cc(O)ccc32)c2ccc(NC(=S)*)cc21; Ahx = NCCCCCC(=O)O; βAla = NCCC(=O)O

As to `CSCC[C@H](NC(=O)[C@H](Cc1ccccc1)NC(=O)[C@H](CCCCN)NC(=O)[C@H](CC(=O)O)NC(=O)[C@H](CCC(=O)O)NC(=O)[C@H](CCCNC(=N)N)NC(=O)[C@H](CCCNC(=N)N)NC(=O)[C@@H](NC(=O)[C@@H]1CCCN1C(=O)CNC(C)=O)[C@@H](C)O)C(=O)N[C@@H](Cc1ccc(O)cc1)C(=O)N[C@@H](Cc1ccccc1)C(N)=O` [CTRL, reference compound] (Ac-GPTRREDKFMYF-NH2), the “Interaction with Ship2-Sam by chemical shift perturbation” value in series [1] was “did not reveal high-affinity binding”.

On to `CC[C@H](C)[C@H](NC(=O)[C@H](CCCNC(=N)N)NC(=O)[C@H](CCCCN)NC(=O)[C@H](CC(N)=O)NC(=O)[C@H](C)NC(=O)[C@H](CC(C)C)NC(=O)[C@H](Cc1ccccc1)NC(=O)[C@H](CCCCN)NC(=O)[C@H](Cc1ccc(O)cc1)NC(=O)[C@H](Cc1c[nH]c2ccccc12)NC(=O)[C@H](CCC(=O)O)NC(=O)[C@H](CCCNC(=N)N)NC(=O)[C@H](CCCCN)NC(C)=O)C(=O)N[C@@H](C)C(=O)N[C@@H](Cc1ccc(O)cc1)C(N)=O` [PSscan255] (Ac-KREWYKFLANKRIAY-NH2), for which the Kd in series [2] is ~70 µM and 70 µM. For the same molecule, the remaining at 5 h, 80 µM in series [3] (5 h, read-out: Peptide recovered after incubation with FBS) turned out to be 80%. Further, in series [3] (19 h, read-out: Peptide not degraded after incubation with FBS), the remaining at 19 h, 80 µM was 50%.

As to `CC[C@H](C)[C@H](NC(=O)[C@H](CCCNC(=N)N)NC(=O)[C@H](CCCCN)NC(=O)[C@H](CC(N)=O)NC(=O)[C@H](C)NC(=O)[C@H](CCSC)NC(=O)[C@H](Cc1ccccc1)NC(=O)[C@H](CCCCN)NC(=O)[C@H](Cc1ccc(O)cc1)NC(=O)[C@H](Cc1c[nH]c2ccccc12)NC(=O)[C@H](CC(=O)O)NC(=O)[C@H](CCCNC(=N)N)NC(=O)[C@H](CCCCN)NC(C)=O)C(=O)N[C@@H](C)C(=O)N[C@@H](Cc1ccc(O)cc1)C(N)=O` [PSscan258] (Ac-KRDWYKFMANKRIAY-NH2), the “Interaction with Ship2-Sam by chemical shift perturbation” value in series [1] is “weakest”.

Consider `CC[C@H](C)[C@H](NC(=O)[C@H](CCCNC(=N)N)NC(=O)[C@H](CCCCN)NC(=O)[C@H](CC(N)=O)NC(=O)[C@H](C)NC(=O)[C@H](CCSC)NC(=O)[C@H](Cc1ccccc1)NC(=O)[C@H](CCCCN)NC(=O)[C@H](Cc1ccc(O)cc1)NC(=O)[C@H](Cc1c[nH]c2ccccc12)NC(=O)[C@H](CCC(=O)O)NC(=O)[C@H](CCCNC(=N)N)NC(=O)[C@H](CCSC)NC(C)=O)C(=O)N[C@@H](C)C(=O)N[C@@H](Cc1ccc(O)cc1)C(N)=O` [PSscan266] (Ac-MREWYKFMANKRIAY-NH2), for which the “Interaction with Ship2-Sam by chemical shift perturbation” value in series [1] is “weak interactions”. Further, the Self-aggregation result in series [4] is listed as “could be affected by a certain amount of self-aggregation”.

As to `CC[C@H](C)[C@H](NC(=O)[C@H](CCCNC(=N)N)NC(=O)[C@H](CCCCN)NC(=O)[C@H](CC(N)=O)NC(=O)[C@H](C)NC(=O)[C@H](CC(C)C)NC(=O)[C@H](Cc1ccccc1)NC(=O)[C@H](CCCCN)NC(=O)[C@H](Cc1ccc(O)cc1)NC(=O)[C@H](Cc1c[nH]c2ccccc12)NC(=O)[C@H](CCC(=O)O)NC(=O)[C@H](CCCNC(=N)N)NC(=O)[C@H](CCCCN)NC(=O)CNC(=O)CNC(=O)[C@H](CCC(N)=O)NC(=O)[C@@H]1CCCN1C(=O)[C@@H]1CCCN1C(=O)[C@H](CCCNC(=N)N)NC(=O)[C@H](CCCNC(=N)N)NC(=O)[C@H](CCCNC(=N)N)NC(=O)[C@H](CCC(N)=O)NC(=O)[C@H](CCCNC(=N)N)NC(=O)[C@H](CCCNC(=N)N)NC(=O)[C@H](CCCCN)NC(=O)[C@H](CCCCN)NC(=O)[C@H](CCCNC(=N)N)NC(=O)CNC(=O)CCNC(=O)CCCCCNC(=S)Nc1ccc2c(c1)C(=O)OC21c2ccc(O)cc2Oc2cc(O)ccc21)C(=O)N[C@@H](C)C(=O)N[C@@H](Cc1ccc(O)cc1)C(N)=O` [FITC-TAT-PSscan255] ({FITC-Ahx-βAla}-GRKKRRQRRRPPQGGKREWYKFLANKRIAY-NH2), the “Cellular localization after uptake” value in series [5] is given as “positioned in the cytoplasm”.

B1: Ship2-Sam Sam (protein)
chain: ASGLGEAGMSAWLRAIGLERYEEGLVHNGWDDLEFLSDITEEDLEEAGVQDPAHKRLLLDTLQLSK
In series [6], B1 had a dissociation constant (Kd) of 70 µM.
